{
  "source": "patent US9668479B2",
  "about": "“Modulating germination of Paenibacillus larvae” (THE BOARD OF REGENTS OF THE NEVADA SYSTEM OF HIGHER …, priority 2013, dated 2017)",
  "key": {"P. larvae spores [1]": {"tested_on": "P. larvae spores", "assay": "Inhibition of P. larvae spore germination, IC50 titration of indole analogs (Example 2)", "assay_type": "cell-based, Paenibacillus larvae subsp. pulvifaciens strain ATCC 49843", "conditions": "Paenibacillus larvae; Table 2; saturating uric acid/L-tyrosine concentrations; read-out: IC50", "protocol": "After a 15 minute incubation, the spores were treated with 3 mM L-tyrosine-3 mM uric acid. The germination rate was set to 100% for P. larvae spores germinated in the absence of inhibitor. Germination rates for other conditions were divided by the uninhibited maximum germination rate obtained with 3 mM L-tyrosine-3 mM uric acid, and are reported as percent germination. Percent germination was plotted against the inhibitor concentrations."}, "[2]": {"tested_on": "honey bee larvae contacted with P. larvae spores", "assay": "Survival of honey bee larvae fed diet with indole analogs and P. larvae spores", "assay_type": "in vivo", "protocol": "First instar honey bee larvae were obtained from two colonies headed by naturally mated queens (Honey Bee Genetics, Vacaville Calif.). Queens were trapped on empty frames within a cage constructed with queen excluder. Worker bees can fit through the excluder but the queen cannot exit the cage. The frame was placed within the brood chamber to stimulate egg laying by the queen overnight. Eggs were incubated in the hive for 4 days to allow newly hatched larvae to be fed by nurse bees. First instar honey bee larvae were brought into the laboratory and stored in a 35° C. 85% relative humidity chamber before grafting.\nSterile six well plates with a well volume of 17.0 ml were filled with 2.5 ml of pre-warmed artificial worker jelly. Honey bee larvae were transferred into each well using the thin tongue made of flexible plastic from a Chinese grafting tool. The plastic grafting tool was decontaminated with 70% ethanol throughout usage. Grafting was performed in the sterile environment of a honey bee laboratory, and honey bee larvae were then transferred to a bacterial spore laboratory for control and spore exposure treatments.\nArtificial worker jelly was prepared using a lyophilized royal jelly, D-glucose, D-fructose, yeast extract, and autoclaved double distilled water. Ingredients minus lyophilized royal jelly were dissolved in autoclaved double distilled water. Lyophilized royal jelly was added to this sugar-yeast extract solution and mixed thoroughly with a vortex mixer. Artificial diet was prepared an hour prior to use for larval rearing. To reduce the development of worker-queen hybrids because of nutrition, the composition and amounts of artificial worker jelly were controlled in every larval stage.\nHoney bee larvae were incubated in an air tight plastic container placed inside an incubator. The desired relative humidity (95%) and temperature (35° C.) was verified with an iButton data logger (Maxim Integrated; San Jose, Calif.). The appropriate relative humidity was obtained by placing a solution of 20% glycerol by weight. The plastic containers were was decontaminated throughout usage with detergent, 70% ethanol, and treated with an ultraviolet lamp overnight.\nFeeding of diets was performed daily in different amounts according to Table 2. The amount of diet consumed by larvae was assumed based on published literature. A micropipette was used to place a food drop next to the mouth of the larvae. Drowning was avoided by maintaining the appropriate humidity and water content of diet. Forty first and second instar larvae were placed into one well of a six well plate. Third instar larvae were transferred individually to 48 well plates filled with fresh food.\nLarval survival was determined daily by observing signs of respiration, disease symptoms, and other abnormalities with a stereo microscope. The number of dead larvae was recorded, and surviving larvae were fed fresh food. The start of pupation was indicated by the appearance of uric acid crystals and light yellow excretions in the remaining food.\nThe larval survival data was analyzed using the LogRank test in SigmaPlot."}, "P. larvae spores [3]": {"tested_on": "P. larvae spores", "assay": "Growth from P. larvae spores in medium containing 5-chloroindole", "assay_type": "cell-based, Paenibacillus larvae", "protocol": "FIGS. 7A-7D are graphs plotting the inhibition activity of 5-chloroindole on P. larvae spores. P. larvae spores were grown in medium containing different concentrations of 5-chloroindole. Growth was monitored over a 24 hour period; plots are shown for 6 hours (FIG. 7A), 12 hours (FIG. 7B), 18 hours (FIG. 7C), and 24 hours (FIG. 7D). Asterisks denote significant differences from the growth of medium control (Analysis of Variance, Log-rank test, p<0.05).\nP. larvae spores were grown in medium containing different concentrations of DMSO, complex medium (MYPGP), or 0.5 to 2 mM 5-chloroindole, and cellular growth was monitored over a 24 hour period."}, "P. larvae cells": {"tested_on": "P. larvae cells", "assay": "Growth of P. larvae cells in medium containing 5-chloroindole", "assay_type": "cell-based, Paenibacillus larvae", "conditions": "1, 1.5 and 2 mM; all time points (6, 12, 18, 24 hours); p<0.05", "protocol": "FIGS. 6A-6D are graphs plotting the inhibition activity of 5-chloroindole on P. larvae cells. P. larvae cells were grown in medium containing different concentrations of 5-chloroindole, and cellular growth was monitored over a 24 hour period. Graphs are shown for 6 hours (FIG. 6A), 12 hours (FIG. 6B), 18 hours (FIG. 6C), and 24 hours (FIG. 6D). Asterisks denote significant differences from the growth of medium control (Analysis of Variance, Log-rank test, p<0.05).\n5-Chloroindole was then tested in vitro, using P. larvae cells or spores. P. larvae cells were grown in medium containing different concentrations of DMSO, complex medium (MYPGP), or 0.5 to 2 mM 5-chloroindole, and cellular growth was monitored over a 24 hour period."}},
  "data": [
    {"molecule": "Clc1ccc2[nH]ccc2c1", "note": "[5-chloroindole]", "values": [
      {"measurement": "IC50", "setting": "P. larvae spores [1]", "result": "30 ± 10", "unit": "µM"},
      {"measurement": "concentration dependence of increase in larval survival", "setting": "[2]; 0.125 mM to 1 mM in larval diet (wj) plus P. larvae spores, p<0.001", "result": "directly correlated to its concentration"},
      {"measurement": "ranking of effect on larval survival among analogs", "setting": "[2]; 0.5 mM in larval diet (wj) plus P. larvae spores", "result": "greatest effect"},
      {"measurement": "survival of honey bee larvae vs P. larvae spores alone", "setting": "[2]; 0.5 mM in larval diet (wj) plus P. larvae spores, 7-day development, p<0.002", "result": "increased survival"},
      {"measurement": "effect on growth from P. larvae spores vs medium control, 6 hours", "setting": "P. larvae spores [3]; 0.5 to 2 mM, 6 hours", "result": "no significant effect"},
      {"measurement": "effect on growth from P. larvae spores vs medium control, 18 and 24 hours", "setting": "P. larvae spores [3]; all concentrations (0.5 to 2 mM), 18 and 24 hours, p<0.05", "result": "significantly inhibited"},
      {"measurement": "inhibition of P. larvae cell growth vs medium control", "setting": "P. larvae cells", "result": "significantly inhibited"}
    ]}
  ]
}
